Laboratory results published in patent US20220408731A1, “MODIFIED ANTIMICROBIAL PEPTIDES” (priority 2021, published 2022).
≈ marks a conversion by molar mass, not a printed value. Bridge positions count the residues as written; N and C are the ends. Peptide text beside a SMILES is read from it.

Key:
[1] = test system: Botrytis cinerea
[2] = test system: Alternaria alternata; details: unit from method, none in Table 19
[3] = test system: Colletotrichum gloeosporioides; details: unit from method, none in Table 19
[4] = test system: B. cinerea; assay: Drop inoculation assay on detached Nicotiana benthamiana leaves (semi-in planta); format: in vivo, Botrytis cinerea; details: 48 h; for Reduction of gray mold disease symptoms: detached N. benthamiana leaves, no single concentration stated
[5] = test system: Cercospora sojina; details: unit from method, none in Table 19

Row | Compound | MIC (μM) (SFM + 2 mM CaCl2) [1] | MIC (μM) (SFM + 100 mM KCl) [1] | MIC (μM) (SFM + 100 mM NaCl) [1] | MIC (μM) SFM [1] | MIC, Alternaria alternata [2] | MIC, Colletotrichum gloeosporioides [3] | Reduction of gray mold disease symptoms [4] | MIC, Cercospora sojina [5] | Gray mold symptoms, drop inoculation assay ([4]; peptide at 1.5 μM and 3 μM) | Gray mold symptoms, drop inoculation assay ([4]; peptide at 6 μM)
1 | CC[C@H](C)[C@@H]1NC(=O)[C@H](CCCNC(=N)N)NC(=O)[C@H]([C@@H](C)O)NC(=O)[C@H](Cc2ccccc2)NC(=O)[C@H](Cc2c[nH]c3ccccc23)NC(=O)[C@H](Cc2ccccc2)NC(=O)[C@H](CCCNC(=N)N)NC(=O)[C@H](CCCNC(=N)N)NC(=O)[C@H](CC(C)C)NC(=O)[C@H](Cc2ccccc2)NC(=O)CNC(=O)[C@H](CCCCN)NC(=O)[C@@H](NC(=O)[C@H](CCCNC(=N)N)NC(=O)CNC(=O)CN)CSSC[C@@H](C(N)=O)NC1=O [GMA4C_V9] (H-GGRCKGFLRRFWFTRIC-NH2; disulfide 4-17; N-terminus assumed) | 12 µM | 6 to 12 µM | 3 µM | 3 µM (≈ 6.3 µg/mL) | >12 µM | >12 µM | effective in reducing gray mold disease symptoms | 6 µM (≈ 12.6 µg/mL) |  | 
2 | CC[C@H](C)[C@@H]1NC(=O)[C@H](CCCNC(=N)N)NC(=O)[C@H]([C@@H](C)O)NC(=O)[C@H](Cc2c[nH]c3ccccc23)NC(=O)[C@H](Cc2ccc(O)cc2)NC(=O)[C@H](Cc2c[nH]c3ccccc23)NC(=O)[C@H](CCCNC(=N)N)NC(=O)[C@H](CCCNC(=N)N)NC(=O)[C@H](CCCNC(=N)N)NC(=O)[C@H](Cc2ccccc2)NC(=O)CNC(=O)[C@H](CCCCN)NC(=O)[C@@H](NC(=O)[C@H](CCCNC(=N)N)NC(=O)CNC(=O)CN)CSSC[C@@H](C(N)=O)NC1=O [GMA4C_V10] (H-GGRCKGFRRRWYWTRIC-NH2; disulfide 4-17; N-terminus assumed) | 3 µM | 3 to 6 µM | 3 µM | 3 µM (≈ 6.6 µg/mL) | >12 µM | >12 µM | effective in reducing gray mold disease symptoms | 6 µM (≈ 13.2 µg/mL) | more effective in reducing the symptoms of gray mold than GMA4C_V9 | completely abrogates gray mold symptoms
3 | C[C@H](NC(=O)CN)C(=O)N[C@H]1CSSC[C@@H](C(N)=O)NC(=O)[C@H](CCCCN)NC(=O)[C@H](CCCCN)NC(=O)[C@H](Cc2ccc(O)cc2)NC(=O)[C@H](Cc2c[nH]c3ccccc23)NC(=O)[C@H](Cc2ccccc2)NC(=O)[C@H](Cc2c[nH]c3ccccc23)NC(=O)[C@H](C)NC(=O)[C@H](Cc2ccccc2)NC(=O)CNC(=O)[C@H](Cc2ccccc2)NC(=O)CNC(=O)[C@H](CCC(N)=O)NC(=O)[C@H](CCCNC(=N)N)NC(=O)[C@H](Cc2c[nH]cn2)NC1=O [GMA5CA_V3] (H-GACHRQGFGFAWFWYKKC-NH2; disulfide 3-18; N-terminus assumed) | >12 µM | >12 µM | >12 µM | 3 µM (≈ 6.57 µg/mL) | 3 µM (≈ 6.57 µg/mL) | >12 µM |  | 6 µM (≈ 13.1 µg/mL) |  | 
4 | C[C@H](NC(=O)CN)C(=O)N[C@H]1CSSC[C@@H](C(N)=O)NC(=O)[C@H](CCCCN)NC(=O)[C@H](CCCCN)NC(=O)[C@H](Cc2ccc(O)cc2)NC(=O)[C@H](Cc2ccccc2)NC(=O)[C@H](Cc2ccccc2)NC(=O)[C@H](Cc2ccccc2)NC(=O)[C@H](C)NC(=O)[C@H](Cc2ccccc2)NC(=O)CNC(=O)[C@H](Cc2ccccc2)NC(=O)CNC(=O)[C@H](CCC(N)=O)NC(=O)[C@H](CCCNC(=N)N)NC(=O)[C@H](Cc2c[nH]cn2)NC1=O [GMA5CA_V4] (H-GACHRQGFGFAFFFYKKC-NH2; disulfide 3-18; N-terminus assumed) | >12 µM | >12 µM | >12 µM | 3 µM (≈ 6.33 µg/mL) | 3 µM (≈ 6.33 µg/mL) | >12 µM |  | 6 µM (≈ 12.7 µg/mL) |  | 
